Measured values published in US9340501B2, “Marinopyrrole derivatives as anticancer agents” (H. LEE MOFFITT CANCER CENTER AND RESEARCH INSTITUTE, INC., priority 2012, dated 2016).
Values joined by “and” are separate entries in the source; they are usually repeats but may differ in a detail not shown here. Equal entries are not always repeated. Where two headings read alike, the source gives them in different places. One block for each molecule: values may come before it.

How the values were obtained:
MDA-MB-468 cells = test: In vitro anticancer assay against MDA-MB-468 cells; type: cell-based; details: for inhibition at 0.5 µM: MDA-MB-468, 0.5 μM; for inhibition at 0.5 µM / inhibition at 50 µM / inhibition at 5 µM: read-out: % Inhibition at 0.5, 5, 50 μM; for inhibition at 50 µM: MDA-MB-468, 50 μM; for inhibition at 5 µM: MDA-MB-468, 5 μM
Protocol: The anticancer activities of the novel asymmetrical marinopyrroles described herein were evaluated against MDA-MB-468 cells (Table 1). IC50 values are reported in μM.

Mcl-1 = Mcl-1 (Homo sapiens, UniProt Q07820); details: Tse et al. 2008; cited from earlier work
Bcl-2 = Bcl-2 (Homo sapiens, UniProt P10415); details: Tse et al. 2008; cited from earlier work
Bcl-XL = Bcl-XL (Homo sapiens, UniProt Q07817); details: Tse et al. 2008; cited from earlier work
[1] = mean of the determinations, read-out: Mean IC50
[2] = single determinations, read-out: IC50
[3] = Homo sapiens, MDA-MB-468, estimated from % inhibition at 0.5, 5, 50 μM, read-out: Est. IC50
[4] = Homo sapiens, MDA-MB-468, mean of the determinations, read-out: Mean IC50
[5] = Homo sapiens, MDA-MB-468, single determinations, read-out: IC50
[6] = estimated from % inhibition at 0.5, 5, 50 μM, read-out: Est. IC50

Sequence of Bcl-XL (Q07817 whole entry, species assumed): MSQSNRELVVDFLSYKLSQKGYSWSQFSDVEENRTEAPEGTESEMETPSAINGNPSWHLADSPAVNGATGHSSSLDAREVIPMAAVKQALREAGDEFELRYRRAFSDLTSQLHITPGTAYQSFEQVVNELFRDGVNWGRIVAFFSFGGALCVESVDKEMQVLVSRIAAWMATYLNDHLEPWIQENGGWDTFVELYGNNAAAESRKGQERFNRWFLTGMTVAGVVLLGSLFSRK
Sequence of Mcl-1 (Q07820 whole entry, species assumed): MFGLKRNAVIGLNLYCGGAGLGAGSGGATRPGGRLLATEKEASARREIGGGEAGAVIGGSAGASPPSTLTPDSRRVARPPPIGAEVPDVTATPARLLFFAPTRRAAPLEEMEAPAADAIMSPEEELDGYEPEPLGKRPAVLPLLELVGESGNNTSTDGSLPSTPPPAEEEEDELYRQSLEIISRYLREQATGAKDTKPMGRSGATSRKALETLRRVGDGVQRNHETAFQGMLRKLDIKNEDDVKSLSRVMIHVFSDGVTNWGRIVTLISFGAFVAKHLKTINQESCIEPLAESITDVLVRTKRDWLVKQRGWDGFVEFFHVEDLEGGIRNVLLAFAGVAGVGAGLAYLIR
Sequence of Bcl-2 (P10415 whole entry, species assumed): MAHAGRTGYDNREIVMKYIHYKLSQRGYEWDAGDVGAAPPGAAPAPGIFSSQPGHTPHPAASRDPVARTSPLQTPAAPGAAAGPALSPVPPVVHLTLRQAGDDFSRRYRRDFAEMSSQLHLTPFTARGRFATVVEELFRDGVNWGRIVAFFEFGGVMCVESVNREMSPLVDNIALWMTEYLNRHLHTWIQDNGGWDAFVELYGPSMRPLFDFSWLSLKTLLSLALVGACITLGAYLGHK

SMILES: O=C(c1ccccc1O)c1[nH]c(Cl)c(Cl)c1-n1c(C(=O)c2ccccc2O)cc(Cl)c1Cl (racemic) [Racemic Marinopyrrole A, reference compound]
IC50 (MDA-MB-468 cells; [1]): 2030 ± 180 nM | IC50 (MDA-MB-468 cells; [2]): 2190 nM and 1840 nM and 2070 nM

SMILES: O=C(c1ccccc1O)c1[nH]c(Cl)c(Cl)c1-n1c(C(=O)c2ccccc2O)cc(Cl)c1Cl [(+)-Marinopyrrole A, reference compound]
IC50 (MDA-MB-468 cells; [1]): 1880 nM | IC50 (MDA-MB-468 cells; [2]): 2140 nM and 1640 nM

SMILES: O=C(c1ccccc1O)c1[nH]c(Cl)c(Cl)c1-n1c(C(=O)c2ccccc2O)cc(Cl)c1Cl [(−)-Marinopyrrole A, reference compound]
IC50 (MDA-MB-468 cells; [1]): 3170 nM | IC50 (MDA-MB-468 cells; [2]): 3470 nM and 2870 nM

SMILES: CC1(C)CCC(c2ccc(Cl)cc2)=C(CN2CCN(c3ccc(C(=O)NS(=O)(=O)c4ccc(N[C@H](CCN5CCOCC5)CSc5ccccc5)c(S(=O)(=O)C(F)(F)F)c4)cc3)CC2)C1 [ABT-263]
activity on Mcl-1 (Mcl-1): only weakly target Mcl-1 | concentration that inhibits Bcl-2 (Bcl-2): subnanomolar concentrations | concentration that inhibits Bcl-XL (Bcl-XL): subnanomolar concentrations

SMILES: CN(C)CC[C@H](CSc1ccccc1)Nc1ccc(S(=O)(=O)NC(=O)c2ccc(N3CCN(Cc4ccccc4-c4ccc(Cl)cc4)CC3)cc2)cc1[N+](=O)[O-] [ABT-737]
activity on Mcl-1 (Mcl-1): only weakly target Mcl-1 | concentration that inhibits Bcl-2 (Bcl-2): subnanomolar concentrations | concentration that inhibits Bcl-XL (Bcl-XL): subnanomolar concentrations

IC50 (MDA-MB-468 cells; [3]): 9000 nM
SMILES: O=C(c1ccccc1O)c1[nH]c(Cl)c(Cl)c1-n1c(C(=O)c2cc(Cl)ccc2O)cc(Cl)c1Cl [Compound 1, (5-Chloro-2-hydroxyphenyl)(4,4′,5,5′-tetrachloro-2′-(2-hydroxybenzoyl)-1′H-1,3′-bipyrrol-2-yl)methanone]
inhibition at 0.5 µM (MDA-MB-468 cells; Homo sapiens): 1.6% | inhibition at 50 µM (MDA-MB-468 cells; Homo sapiens): 98.3%

SMILES: O=C(c1ccccc1O)c1[nH]c(Cl)c(Cl)c1-n1c(C(=O)c2ccc(Cl)cc2O)cc(Cl)c1Cl [Compound 2, (4-Chloro-2-hydroxyphenyl)(4,4′,5,5′-tetrachloro-2′-(2-hydroxybenzoyl)-1′H-1,3′-bipyrrol-2-yl)methanone]
IC50 (MDA-MB-468 cells; [4]): 1450 nM | IC50 (MDA-MB-468 cells; [5]): 1720 nM | IC50 (MDA-MB-468 cells; [2]): 1170 nM

SMILES: O=C(c1ccccc1O)c1[nH]c(Cl)c(Cl)c1-n1c(C(=O)c2cccc(Cl)c2O)cc(Cl)c1Cl [Compound 3, (3-Chloro-2-hydroxyphenyl)(4,4′,5,5′-tetrachloro-2′-(2-hydroxybenzoyl)-1′H-1,3′-bipyrrol-2-yl)methanone]
inhibition at 0.5 µM (MDA-MB-468 cells; Homo sapiens): 7% | inhibition at 5 µM (MDA-MB-468 cells; Homo sapiens): 83.4% | inhibition at 50 µM (MDA-MB-468 cells; Homo sapiens): 100% | IC50 (MDA-MB-468 cells; [3]): 1000 nM | IC50 (MDA-MB-468 cells; [4]): 2170 nM | IC50 (MDA-MB-468 cells; [5]): 1950 nM | IC50 (MDA-MB-468 cells; [2]): 2390 nM

IC50 (MDA-MB-468 cells; [4]): 13200 nM | IC50 (MDA-MB-468 cells; [5]): 14000 nM | IC50 (MDA-MB-468 cells; [2]): 12400 nM
SMILES: COc1ccccc1C(=O)c1[nH]c(Cl)c(Cl)c1-n1c(C(=O)c2ccc(Cl)cc2OC)cc(Cl)c1Cl [Compound 5, (4-Chloro-2-methoxyphenyl)(4,4′,5,5′-tetrachloro-2′-(2-methoxybenzoyl)-1′H-[1,3′-bipyrrole]-2-yl)methanone]

IC50 (MDA-MB-468 cells; [4]): 11000 nM | IC50 (MDA-MB-468 cells; [5]): 11700 nM | IC50 (MDA-MB-468 cells; [2]): 10200 nM
SMILES: COc1ccccc1C(=O)c1[nH]c(Cl)c(Cl)c1-n1c(C(=O)c2cc(F)ccc2OC)cc(Cl)c1Cl [Compound 7]

SMILES: O=C(c1ccccc1O)c1[nH]c(Cl)c(Cl)c1-n1c(C(=O)c2cc(F)ccc2O)cc(Cl)c1Cl [Compound 8]
IC50 (MDA-MB-468 cells; [4]): 2140 nM | IC50 (MDA-MB-468 cells; [5]): 2230 nM | IC50 (MDA-MB-468 cells; [2]): 2050 nM

SMILES: COc1cc(OC)c(C(=O)c2cc(Cl)c(Cl)n2-c2c(C(=O)c3ccccc3OC)[nH]c(Cl)c2Cl)cc1Cl [Compound 9]
IC50 (MDA-MB-468 cells; [5]): 20400 nM

IC50 (MDA-MB-468 cells; [4]): 1700 nM | IC50 (MDA-MB-468 cells; [5]): 1940 nM | IC50 (MDA-MB-468 cells; [2]): 1460 nM
SMILES: O=C(c1ccccc1O)c1[nH]c(Cl)c(Cl)c1-n1c(C(=O)c2cc3ccccc3c(Cl)c2O)cc(Cl)c1Cl [Compound 10]

IC50 (MDA-MB-468 cells; [5]): 10700 nM
SMILES: COc1ccccc1C(=O)c1[nH]c(Cl)c(Cl)c1-n1c(C(=O)c2cc(Cl)c3ccccc3c2O)cc(Cl)c1Cl [Compound 11]

SMILES: O=C(c1ccccc1O)c1[nH]c(Cl)c(Cl)c1-n1c(C(=O)c2cc(Cl)c3ccccc3c2O)cc(Cl)c1Cl [Compound 12]
IC50 (MDA-MB-468 cells; [4]): 1890 nM | IC50 (MDA-MB-468 cells; [5]): 1900 nM

IC50 (MDA-MB-468 cells; [3]): 25000 nM
SMILES: COc1ccccc1C(=O)c1[nH]c(Cl)c(Cl)c1-n1c(C(=O)c2cccc(Cl)c2O)cc(Cl)c1Cl [Compound 21]
inhibition at 0.5 µM (MDA-MB-468 cells; Homo sapiens): -0.4% | inhibition at 50 µM (MDA-MB-468 cells; Homo sapiens): 99.1%

IC50 (MDA-MB-468 cells; [3]): 28000 nM
SMILES: COc1ccccc1C(=O)c1[nH]c(Cl)c(Cl)c1-n1c(C(=O)c2cc(F)ccc2O)cc(Cl)c1Cl [Compound 25]
inhibition at 0.5 µM (MDA-MB-468 cells; Homo sapiens): 2.4% | inhibition at 50 µM (MDA-MB-468 cells; Homo sapiens): 95.7%

SMILES: O=C(c1ccccc1O)c1[nH]c(Cl)c(Cl)c1-n1c(C(=O)c2c([O-])cccc2F)cc(Cl)c1Cl.[Na+] [Compound 27]
% Inhibition at 0.5, 5, 50 μM (MDA-MB-468 cells; 0.5 μM): 3.9% | inhibition at 50 µM (MDA-MB-468 cells; Homo sapiens): 96.3% | IC50 (MDA-MB-468 cells; [6]): 25000 nM

SMILES: O=C(c1ccccc1O)c1[nH]c(Cl)c(Cl)c1-n1c(C(=O)c2ccc(F)cc2O)cc(Cl)c1Cl [Compound 30]
inhibition at 0.5 µM (MDA-MB-468 cells; Homo sapiens): 10.8% | inhibition at 5 µM (MDA-MB-468 cells; Homo sapiens): 78.6% | inhibition at 50 µM (MDA-MB-468 cells; Homo sapiens): 94.7% | IC50 (MDA-MB-468 cells; [3]): 1000 nM | IC50 (MDA-MB-468 cells; [4]): 1040 nM | IC50 (MDA-MB-468 cells; [5]): 940 nM | IC50 (MDA-MB-468 cells; [2]): 1140 nM

SMILES: O=C(c1ccccc1O)c1[nH]c(Cl)c(Cl)c1-n1c(C(=O)c2ccc(F)cc2[O-])cc(Cl)c1Cl.[Na+] [Compound 31]
% Inhibition at 0.5, 5, 50 μM (MDA-MB-468 cells; 0.5 μM): 5.6% | % Inhibition at 0.5, 5, 50 μM (MDA-MB-468 cells; 5 μM): 63.5% | % Inhibition at 0.5, 5, 50 μM (MDA-MB-468 cells; 50 μM): 99.4% | IC50 (MDA-MB-468 cells; [6]): 2000 nM | IC50 (MDA-MB-468 cells; [1]): 3150 nM | IC50 (MDA-MB-468 cells; [2]): 3970 nM and 2330 nM

SMILES: O=C(c1ccccc1O)c1[nH]c(Cl)c(Cl)c1-n1c(C(=O)c2c(O)cccc2F)cc(Cl)c1Cl [Compound 32]
% Inhibition at 0.5, 5, 50 μM (MDA-MB-468 cells; 0.5 μM): 0% | % Inhibition at 0.5, 5, 50 μM (MDA-MB-468 cells; 50 μM): 87.7% | IC50 (MDA-MB-468 cells; [6]): 12000 nM

SMILES: O=C(c1ccccc1O)c1[nH]c(Cl)c(Cl)c1-n1c(C(=O)c2cc(Br)ccc2O)cc(Cl)c1Cl [Compound 33]
inhibition at 0.5 µM (MDA-MB-468 cells; Homo sapiens): 10.8% | inhibition at 5 µM (MDA-MB-468 cells; Homo sapiens): 58.7% | inhibition at 50 µM (MDA-MB-468 cells; Homo sapiens): 99.3% | IC50 (MDA-MB-468 cells; [3]): 2000 nM | IC50 (MDA-MB-468 cells; [5]): 3870 nM

IC50 (MDA-MB-468 cells; [5]): 33500 nM
SMILES: COc1ccc(F)cc1C(=O)c1cc(Cl)c(Cl)n1-c1c(C(=O)O)[nH]c(Cl)c1Cl [Compound 34]

IC50 (MDA-MB-468 cells; [5]): 10500 nM
SMILES: COc1ccccc1C(=O)c1[nH]c(Cl)c(Cl)c1-n1c(C(=O)c2cccc3ccccc23)cc(Cl)c1Cl [Compound 35]

IC50 (MDA-MB-468 cells; [5]): 15700 nM
SMILES: CCOC(=O)c1[nH]c(Cl)c(Cl)c1-n1c(C(=O)c2ccccc2O)cc(Cl)c1Cl [Compound 37]

IC50 (MDA-MB-468 cells; [4]): 2090 nM | IC50 (MDA-MB-468 cells; [5]): 2730 nM | IC50 (MDA-MB-468 cells; [2]): 1440 nM
SMILES: CCOC(=O)c1cc(Cl)c(Cl)n1-c1c(C(=O)c2ccccc2O)[nH]c(Cl)c1Cl [Compound 38]

IC50 (MDA-MB-468 cells; [5]): 18300 nM
SMILES: COc1ccc(C(=O)c2[nH]c(Cl)c(Cl)c2-n2c(C(=O)c3ccc(OC)cc3)cc(Cl)c2Cl)cc1 [Compound 39]
